Here are results for two molecules from patent publication US20250382346A1, “NEURONAL PROMOTERS AND USES THEREOF” (priority 2023, published 2025).

“Also recorded” adds a separate entry of the source.

A short description of series [1]: CSF concentration of DCZ by LC-MS. The conditions noted are these: 24 hours after drug infusion, 0.3 mg/kg i.m.
A short description of series [2]: Locomotion test in naïve macaques (no viral injection). It counts as in vivo. The conditions noted are these: DCZ 0.3 mg/kg i.m.
The target in series [3] is T1, rM3Ds (Rattus norvegicus, UniProt P08483, A177S/A238G/A489L/DEL261-437/DEL441-478/E258S/I253V/I483M/INS256[…]/K178L/K182A/K255R/K484R/K486H/L173F/L482A/M480V/R171S/R176Q/R179M/S481M/T174R/T181R/T257A/Y148C).
T1 sequence (P08483 with tags, fused parts or gaps Y148C/R171S/L173F/T174R/R176Q/A177S/K178L/R179M/T181R/K182A/A238G/I253V/K255R/INS256[…]/T257A/E258S/DEL261-437/DEL441-478/M480V/S481M/L482A/I483M/K484R/K486H/A489L): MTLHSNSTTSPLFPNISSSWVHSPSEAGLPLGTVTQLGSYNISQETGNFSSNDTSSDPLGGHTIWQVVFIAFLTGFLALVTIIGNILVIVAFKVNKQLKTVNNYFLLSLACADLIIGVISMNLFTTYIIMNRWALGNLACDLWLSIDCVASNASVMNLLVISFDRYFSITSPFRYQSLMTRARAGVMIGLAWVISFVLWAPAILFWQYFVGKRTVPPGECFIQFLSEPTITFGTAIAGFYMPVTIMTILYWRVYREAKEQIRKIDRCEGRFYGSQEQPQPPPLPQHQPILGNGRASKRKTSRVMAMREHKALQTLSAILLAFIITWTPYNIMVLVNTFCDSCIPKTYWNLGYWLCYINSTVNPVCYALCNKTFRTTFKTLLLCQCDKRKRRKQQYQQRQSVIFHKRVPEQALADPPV
On the procedure:
Monkeys were continuously monitored by veterinarians after lesion.
Dyskinesia score criteria were: 0: Absent. 1: Mild, fleeting, present <30% of the observation period.
Each block included ten continuous trials.
Customized surface EMG electrodes were used for EMG recordings. […] The recording procedure was conducted immediately after DCZ infusions.

Series [4] can be described thus: Blood test of liver- and kidney-related factors during DCZ treatment. It counts as in vivo, macaques. The conditions noted are these: n=3 monkeys. The text has this: FIG. 36A-36F depict effects of D1-MSN activation on dyskinesia-like behavior and health state-related blood factors in parkinsonian macaques. FIG. 36A illustrates quantitation of dyskinesia score at 2 months, 4 months, and 8 months after treatment with DCZ. n=3 monkeys per group.
Intriguingly, many of the symptoms were greatly reversed after systemic deschloroclozapine (DCZ) administration. DCZ is a potent brain-penetrable agonist for rM3Ds with reduced off-targeting binding compared to CNO, and was administered to activate the DREADD system in the macaque brain.

The target of series [5] is T1, rM3Ds. Nature of the series: In vivo electrophysiological recording in caudate/putamen of anesthetized macaques, rM3Ds. Also noted: 2A-EYFP (C); expressed in transfected cells; host or cells: neurons (striatal D1-MSNs) of mice or cynomolgus macaques, transduced in vivo by nigral AAV8R12-G88P7-rM3Ds-2A-EYFP. The following applies: MPP+ lesioned macaques, CNO 36 cells, DCZ 31 cells. On the procedure: • Electrophysiological recording was performed through a recording chamber while the monkey was anesthetized. Neural responses were recorded by a 16-channel linear probe (Plexon Inc, Uprobe) driven by a mechanical microdrive (Alpha Omega, FlexMT). Signals were passed through a head stage (Plexon Inc, HST/16V-G20 LN) and then split and filtered between 300 Hz and 5 kHz to identify spiking activity with an amplifier system (Plexon Inc, OmniPlex). Detected spikes were then sorted by commercially available software (Plexon Inc, Offline Sorter) for further analysis. To quantify the effect of CNO/DCZ injection, neural activity was recorded for 60 minutes following CNO/DCZ injection. The response time-course for each channel was obtained by counting the spikes within every 10-minute window and then normalizing to the maximal.
To determine the effect of CNO/DCZ injection on the direction of signal change, we performed Pearson correlation between neural responses and time using the ‘corr’ function in Matlab, which generates the correlation coefficient ‘r’ and significant level ‘p’. A neuron was considered to have “Increased” activity when r>0 and p<0.05; and considered to have “Decreased” activity when r<0 and p<0.05. Otherwise, neurons were considered to be “Unchanged” in their neural activities. The responses of all increased neurons were then averaged after being normalized by the maximal response (Crowe et al., 2014; Dai and Wang, 2018; Hirokawa et al., 2019) following CNO/DCZ injection, and then plotted as a function of time to generate the normalized population response.
To enable in-vivo verification of the strategy via an opto-tagging approach, AAV virus encoding opsin ChR2 (AAV9-EF1α-DIO-ChR2-EYFP) was injected into the striatum with simultaneous nigral infusion of a retrograde AAV encoding Cre and rM3Ds (AAV8R12-G88P7-HA-rM3Ds-2A-Cre). A total volume of 27 μl (3 μl×9 sites) and 30 μl (3 μl×10 sites) were injected in the SNr and the striatum, respectively. A recording chamber was implanted above the striatum to allow optical stimulation and electrophysiological recording.
Optogenetic verification was conducted six weeks after virus injections. A 16-channel linear probe with an embedded optic fiber (Plexon Inc., Uprobe) was used to deliver light stimulation and record neural responses. A mechanical Microdrive (FlexMT, Alpha Omega, Nazareth, Israel) was used to mount and drive the probe. A blue laser (473 nm, Changchun New Industries Tech, MBL-III-473) was used to generate light stimulation, which was controlled by a DAQ board (National Instruments, PCIe-6321) through the MonkeyLogic toolbox (NIMH version).
Light pulses of 40 Hz that last for 500 ms were used to probe neurons' responses to optical stimulation. […] Responses from these optically identified cells were grouped to generate the normalized population response as a function of time.

Series [6] relates to MSNs in nucleus accumbens. Kind of series: Retrograde labeling of accumbal MSNs after delivery into ventral pallidum or lateral hypothalamus. The conditions noted are these: stereotaxic delivery into ventral pallidum or lateral hypothalamus. Type of series: in vivo, mice.
In series [7] the test system is striatonigral projection neurons (D1 MSNs). Nature of the series: Retrograde labeling of striatal MSNs after AAV injection into the SNr, EYFP+ cell counting. Type of series: in vivo, mice. On the procedure: To improve efficiency, multiple rounds of mutations of AAV capsids were performed on a series of different serotypes. Mutations were introduced at three sites in the AAV8 capsid protein to make AAV8R, including N385D, insertion of […] (SEQ ID NO: 31) at position 588, and TS711-7121N. Two additional mutations of V183E and N41 IS were incorporated into the AAV8R12 capsid protein (FIG. 1A). The labeling pattern of the AAV8R12 capsid and G88 promoter combination was determined.
was inserted at the N587-R588 position; two other point mutations of the AAV2 Cap protein were made to develop rAAV2-retro. Similar mutations were then placed at equivalent positions for four other AAV serotypes (FIGS. 1A-1C and 25, TABLE 1), AAV1/5/6/8 (FIG. 1A). […] When administered into the SNr, 4.86±0.22 times EYFP positive MSNs in mice infected by AAV8R-hSyn-EYFP were observed as compared to those infected by rAAV2-retro-hSyn-EYFP (FIG. 2A-2C).
Baseline infectivity of rAAV2-retro was approximately 0.2±0.03×10^4 cells per striatal hemisphere (using a hSyn promoter) (TABLE 2). […] Compared to the current standard retrograde AAV, rAAV2-retro, AAV8R12 labeled 7.72±0.78-times more MSNs after nigral delivery (FIG. 2B-2C, TABLE 1). […] The AAV8R12 was generated using the AAV8R plasmid as a template.
Mice were anesthetized with sodium pentobarbital (Nembutal; 80 mg/kg, i.p.), and then placed into a stereotaxic device (KOPF). Eye cream was applied on both corneas to avoid dehydration. The skull above the targeted areas was thinned with a dental drill and carefully removed. Injections were conducted with a 10 μL syringe connected to a 33-Gauge needle (Neuros; Hamilton), using a microsyringe pump (Legato 130, KD Scientific). A total volume of 200 nL virus was injected into the SNr at a speed of 20 nL/min. The coordinates for the SNr were 3.4 mm posterior, 1.3 mm lateral, 4.8 mm ventral to the bregma.
Images were acquired using a confocal microscope (Carl Zeiss, LSM880) and an Axiolmager. Z1 microscope with apotome (Carl Zeiss). Brain structures were identified microscopically and in digital photos using a mouse brain atlas. To analyze the number of EYFP+ cells in the striatum, slices from rostral to caudal striatum were used. Every sixth section was analyzed, and numbers of EYFP+ cells were multiplied by six to acquire the approximate total number and mean number of cells per animal. Images were processed using ImageJ (NIH, USA), and final quantifications were independently performed manually by two blinded experimenters.

As to `CN1CCN(C2=Nc3ccccc3Nc3ccccc32)CC1` [DCZ, Deschloroclozapine], the “DCZ level in cerebrospinal fluid” value in series [1] was “no detectable levels”. For the same molecule, the “motor-related behaviors in naïve monkeys” value in series [2] is listed as “did not alter motor-related behaviors in naïve monkeys”. Moreover, the “alleviation of parkinsonian symptoms during long-term treatment” value on rM3Ds [3] (DCZ 0.3 mg/kg every other day) is “consistent during an 8-month continuous treatment”. For the same molecule, the “reversal of parkinsonian symptoms (PD score)” value on rM3Ds [3] (MPP+ macaques with AAV8R12-G88P7-rM3Ds-2A-EYFP, DCZ 0.3 mg/kg i.m., L-Dopa/benserazide 20/5 mg/kg/day oral) is on record as “reversal of canonical parkinsonian symptoms in all tested monkeys; also recorded: comparable efficiency to L-Dopa”. Besides, at rM3Ds [3] (MPP+ macaques, DCZ treatment), the “motor skills (hand to mouth movement)” value is recorded as “significant recovery of motor skills; also recorded: partially restored this motor skill” and the “tremor (EMG)” value is “great reduced or even eliminated; also recorded: removed”. The “dyskinesia-like behaviors (dyskinesia score)” value on rM3Ds [3] (MPP+ macaques, long-term treatment) is “dyskinesia-free”. Also, the “window of efficacy after each dose (alleviating symptoms after drug administration)” value on rM3Ds [3] (after the drug reached steady-state efficacy (FIG. 24C)) is “at least 24 hours”. The “speed of reversal of symptoms, DCZ compared with levodopa” value at rM3Ds [3] (initial phase of drug administration) is “faster reversal of symptoms than levodopa; also recorded: reached stable efficacy faster than L-Dopa”. The “duration of effect (FIG. 18C)” value at rM3Ds [3] (n=3 monkeys) is on record as “over 24 hr”. The “effect of an extended period (4 months) of prior L-Dopa administration on DCZ treatment” value on rM3Ds [3] (one month washout, then DCZ 2 months) is “did not affect the efficacy of DCZ treatment or the absence of dyskinesia”. The “blood levels of common liver- and kidney-related factors (ALT, AST, GGT, CREA, BUN)” value in series [4] was “remained stable”. For the same molecule, the “cells in caudate/putamen activated (FIG. 15G)” value on rM3Ds [5] (saline 17.9%) is 41.9%. Besides, the “cells in caudate/putamen inactivated (FIG. 15G)” value on rM3Ds [5] (saline 33.4%) was 9.7%. Also, the “cells in caudate/putamen unchanged (FIG. 15G)” value at rM3Ds [5] (saline 48.7%) is 48.4%.

B1: AAV8R12: AAV8R capsid mutant V183E + N411S; Cap SEQ ID NO: 59 (protein)
chain: MAADGYLPDWLEDNLSEGIREWWALKPGAPKPKANQQKQDDGRGLVLPGYKYLGPFNGLDKGEPVNAADAAALEHDKAYDQQLQAGDNPYLRYNHADAEFQERLQEDTSFGGNLGRAVFQAKKRVLEPLGLVEEGAKTAPGKKRPVEPSPQRSPDSSTGIGKKGQQPARKRLNFGQTGDSESEPDPQPLGEPPAAPSGVGPNTMAAGGGAPMADNNEGADGVGSSSGNWHCDSTWLGDRVITTSTRTWALPTYNNHLYKQISNGTSGGATNDNTYFGYSTPWGYFDFNRFHCHFSPRDWQRLINNNWGFRPKRLSFKLFNIQVKEVTQNEGTKTIANNLTSTIQVFTDSEYQLPYVLGSAHQGCLPPFPADVFMIPQYGYLTLNDGSQAVGRSSFYCLEYFPSQMLRTGNSFQFTYTFEDVPFHSSYAHSQSLDRLMNPLIDQYLYYLSRTQTTGGTANTQTLGFSQGGPNTMANQAKNWLPGPCYRQQRVSTTTGQNNNSNFAWTAGTKYHLNGRNSLANPGIAMATHKDDEERFFPSNGILIFGKQNAARDNADYSDVMLTSEEEIKTTNPVATEEYGIVADNLQRGNLADQDYTKTARQAATADVNSQGALPGMVWQNRDVYLQGPIWAKIPHTDGNFHPSPLMGGFGLKHPPPQILIKNTPVPADPPTTFNQSKLNSFITQYSTGQVSVEIEWELQKENSKRWNPEIQYTSNYYKSINVDFAVNTEGVYSEPRPIGTRYLTRNL
For B1, in series [6], the “labeling of MSNs in nucleus accumbens” value is given as “robust labeling of MSNs”. The “Labeling Efficiency in Striatonigral Pathway” value in series [7] (AAV8R capsid mutants, numbers of labeled neurons per animal) is on record as “+++ (10k-25k)”. Besides, the “EYFP positive / labeled MSNs compared to rAAV2-retro” value in series [7] (after nigral delivery, hSyn-EYFP) worked out at 7.72±0.78 times. Moreover, in series [7] (capsid comparison, injection into SNr of wild type mice, n=3 mice per group), the “labeled striatonigral projection neurons (FIG. 2C), mean±SEM” value was found to be 16026±1654. Moreover, the “Mean (AAVs with capsid and promoter)” value in series [7] (labeled cells after nigral injection in mice, b188 refers to it as cells per striatal hemisphere, SD and SEM in own columns) is listed as 16026.
